# Patent publication US6518243B1, “Desleucyl glycopeptide antibiotics and methods of making same” (Trustees of Princeton University, priority 1999, dated 2003)
# Columns and labels:
# E. faceium (ATCC 49624) = test: Zone of inhibition screen, 96 well agar array format;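 also: score 3 means fourfold and score 4 sixteenfold the reference zone size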; type: cell-based, E. faecium
# Description: The antibacterial activity of each of the compounds against the bacterial strains E. faceium (ATCC 49624), S. epidermidis (ATCC 12228), S. aureus (ATCC 29213), E. faecalis (CL 4877) and E. faecalis (ATCC 292121) was tested. Each of the compounds was screened in a 96 will agar array format.
# E. faecalis (CL 4877) = test: as above; type: cell-based; design: scale not given here
# Summary of the method: (§1)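 Read-out is antibacterial activity on agar laid out as a 96-well array; every compound went through all strains of the panel.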
# S. aureus (ATCC 29213) = test: as above; type: cell-based; design: scale not given here; details: zone of inhibition relative to 1 mg/ml stock solution of p-chlorobiphenylvancomycin
# Summary of the method: as §1
# [1] = tested on: S. epidermidis (ATCC 12228); test: as above; type: cell-based; design: scale not given here; details: zone of inhibition relative to 1 mg/ml stock solution of p-chlorobiphenylvancomycin
# Summary of the method: as §1
# E. faecium ATCC 49624 = test: MIC determination in BHI media, OD600; type: cell-based; details: BHI + 0.1% casamino acids, 18 hours at 37° C., ≧90% OD600 inhibition
# Description: (§2) Logarithmically growing cells were diluted to approximately 5×10^5 CFU/ml and subjected to test compounds solubilized and serially diluted in DMSO. […] After 18 hours at 37° C., the OD600 was determined by reading the ninety-six well microtiter plates on a microplate reader. For a given concentration, an MIC determination was made if: […]
# S aureus ATCC 29213 = test: MIC determination in BHI media, OD600; type: cell-based; details: BHI + 0.1% casamino acids, 18 hours at 37° C., ≧90% OD600 inhibition
# Description: as §2
# S. Aureus ATCC 33591 = test: MIC determination in BHI media, OD600; type: cell-based; details: BHI + 0.1% casamino acids, 18 hours at 37° C., ≧90% OD600 inhibition
# Description: as §2
# [2] = zone of inhibition relative to 1 mg/ml stock solution of p-chlorobiphenylvancomycin
# [3] = zone of inhibition relative to 1 mg/ml p-chlorobiphenylvancomycin
Structure (SMILES),"zone score, E. faecium ATCC 49624 (E. faceium (ATCC 49624); [2])","zone score, E. faecalis CL 4877 (E. faecalis (CL 4877); [2])","zone score, S. aureus ATCC 29213 (S. aureus (ATCC 29213))",MIC E. faecium ATCC 49624 (E. faecium ATCC 49624) [µg/mL],MIC S. aureus ATCC 29213 (S aureus ATCC 29213) [µg/mL],MIC S. aureus ATCC 33591 (S. Aureus ATCC 33591) [µg/mL],also measured
C[C@H]1O[C@H](O[C@H]2[C@H](Oc3c4cc5cc3Oc3ccc(cc3Cl)[C@@H](O)[C@@H](NC(=O)[C@@H](N)CCCNC(N)=O)C(=O)N[C@@H](CC(N)=O)C(=O)N[C@H]5C(=O)N[C@H]3C(=O)N[C@H](C(=O)N[C@@H](C(=O)O)c5cc(O)cc(O)c5-c5cc3ccc5O)[C@H](O)c3ccc(c(Cl)c3)O4)O[C@H](CO)[C@@H](O)[C@@H]2O)C[C@@](C)(NCc2ccc(-c3ccc(Cl)cc3)cc2)[C@H]1O [Compound 5],2,2,–,–,–,–,–
C[C@H]1O[C@H](O[C@H]2[C@H](Oc3c4cc5cc3Oc3ccc(cc3Cl)[C@@H](O)[C@@H](NC(=O)[C@@H](N)Cc3c[nH]c6ccccc36)C(=O)N[C@@H](CC(N)=O)C(=O)N[C@H]5C(=O)N[C@H]3C(=O)N[C@H](C(=O)N[C@@H](C(=O)O)c5cc(O)cc(O)c5-c5cc3ccc5O)[C@H](O)c3ccc(c(Cl)c3)O4)O[C@H](CO)[C@@H](O)[C@@H]2O)C[C@@](C)(NCc2ccc(-c3ccc(Cl)cc3)cc2)[C@H]1O [Compound 12],–,–,2,0.39,0.78,0.78,"zone score, S. epidermidis ATCC 12228 [1]: 2"
CC(O)C(N)C(=O)NC1C(=O)NC(CC(N)=O)C(=O)NC2C(=O)NC3C(=O)NC(C(=O)NC(C(=O)O)c4cc(O)cc(O)c4-c4cc3ccc4O)C(O)c3ccc(c(Cl)c3)Oc3cc2cc(c3OC2OC(CO)C(O)C(O)C2OC2CC(C)(NCc3ccc(-c4ccc(Cl)cc4)cc3)C(O)C(C)O2)Oc2ccc(cc2Cl)C1O (stereo not drawn) [Compound 43],2,2,–,–,–,–,–
CC1OC(OC2C(Oc3c4cc5cc3Oc3ccc(cc3Cl)C(O)C3NC(=O)C(NC(=O)C5NC(=O)C(CC(N)=O)NC(=O)C(NC(=O)CCN)C(O)c5ccc(c(Cl)c5)O4)c4ccc(O)c(c4)-c4c(O)cc(O)cc4C(C(=O)O)NC3=O)OC(CO)C(O)C2O)CC(C)(NCc2ccc(-c3ccc(Cl)cc3)cc2)C1O (stereo not drawn) [Compound 47],2,2,–,–,–,–,–
CSCC(N)C(=O)NC1C(=O)NC(CC(N)=O)C(=O)NC2C(=O)NC3C(=O)NC(C(=O)NC(C(=O)O)c4cc(O)cc(O)c4-c4cc3ccc4O)C(O)c3ccc(c(Cl)c3)Oc3cc2cc(c3OC2OC(CO)C(O)C(O)C2OC2CC(C)(NCc3ccc(-c4ccc(Cl)cc4)cc3)C(O)C(C)O2)Oc2ccc(cc2Cl)C1O (stereo not drawn) [Compound 50],2,2,–,–,–,–,–
CC1OC(OC2C(Oc3c4cc5cc3Oc3ccc(cc3Cl)C(O)C3NC(=O)C(NC(=O)C5NC(=O)C(CC(N)=O)NC(=O)C(NC(=O)CNC(=O)CNC(=O)CN)C(O)c5ccc(c(Cl)c5)O4)c4ccc(O)c(c4)-c4c(O)cc(O)cc4C(C(=O)O)NC3=O)OC(CO)C(O)C2O)CC(C)(NCc2ccc(-c3ccc(Cl)cc3)cc2)C1O (stereo not drawn) [Compound 67],–,–,2,0.78,0.78,0.78,"zone score, S. epidermidis ATCC 12228 [1]: 2"
COCCOCC(=O)NC1C(=O)NC(CC(N)=O)C(=O)NC2C(=O)NC3C(=O)NC(C(=O)NC(C(=O)O)c4cc(O)cc(O)c4-c4cc3ccc4O)C(O)c3ccc(c(Cl)c3)Oc3cc2cc(c3OC2OC(CO)C(O)C(O)C2OC2CC(C)(NCc3ccc(-c4ccc(Cl)cc4)cc3)C(O)C(C)O2)Oc2ccc(cc2Cl)C1O (stereo not drawn) [Compound 100],–,–,2,0.78,0.25,0.78,–
CC1OC(OC2C(Oc3c4cc5cc3Oc3ccc(cc3Cl)C(O)C3NC(=O)C(NC(=O)C5NC(=O)C(CC(N)=O)NC(=O)C(NC(=O)CC(O)C[N+](C)(C)C)C(O)c5ccc(c(Cl)c5)O4)c4ccc(O)c(c4)-c4c(O)cc(O)cc4C(C(=O)O)NC3=O)OC(CO)C(O)C2O)CC(C)(NCc2ccc(-c3ccc(Cl)cc3)cc2)C1O (stereo not drawn) [Compound 149],2,2,–,–,–,–,–
CC1OC(OC2C(Oc3c4cc5cc3Oc3ccc(cc3Cl)C(O)C3NC(=O)C(NC(=O)C5NC(=O)C(CC(N)=O)NC(=O)C(NC(=O)C(N)CCCNC(=N)N)C(O)c5ccc(c(Cl)c5)O4)c4ccc(O)c(c4)-c4c(O)cc(O)cc4C(C(=O)O)NC3=O)OC(CO)C(O)C2O)CC(C)(NCc2ccc(-c3ccc(Cl)cc3)cc2)C1O (stereo not drawn) [Compound 217],–,–,–,–,–,–,"zone score, E. faecium ATCC 49624 (E. faceium (ATCC 49624); [3]): 2; zone score, E. faecalis CL 4877 (E. faecalis (CL 4877); [3]): 2"
CC(N)C(=O)NC1C(=O)NC(CC(N)=O)C(=O)NC2C(=O)NC3C(=O)NC(C(=O)NC(C(=O)O)c4cc(O)cc(O)c4-c4cc3ccc4O)C(O)c3ccc(c(Cl)c3)Oc3cc2cc(c3OC2OC(CO)C(O)C(O)C2OC2CC(C)(NCc3ccc(-c4ccc(Cl)cc4)cc3)C(O)C(C)O2)Oc2ccc(cc2Cl)C1O (stereo not drawn) [Compound 220],–,–,–,–,–,–,"zone score, E. faecium ATCC 49624 (E. faceium (ATCC 49624); [3]): 2"
